Earlier results, collected in publication PMC12776573, “Mechanism of Self-Assembly of the Gonadropin Releasing Hormone Antagonist Teverelix into Amyloid Fibrils” (Molecular Pharmaceutics, 2025).
Square brackets hold non-standard residues; d marks the D form. Peptide text beside a SMILES is read from it. dPhe(4-Cl) = N[C@H](Cc1ccc(Cl)cc1)C(=O)O; d2Nal = N[C@H](Cc1ccc2ccccc2c1)C(=O)O; d(hCit) = NC(=O)NCCCC[C@@H](N)C(=O)O; Lys(iPr) = CC(C)NCCCC[C@H](N)C(=O)O; d3Pal = N[C@H](Cc1cccnc1)C(=O)O

Conditions: side chain of Tv thought to be deprotonated on fibril formation; not measured here, no reference given
Description: Calculations establish that a single deprotonation event occurs (see the footnote to Table S1). Considering the pK a of all possible protonation sites in Tv, we think that the pyridine side c ...

pKa of the pyridine side chain: 5.22
SMILES: CC(=O)N[C@H](Cc1ccc2ccccc2c1)C(=O)N[C@H](Cc1ccc(Cl)cc1)C(=O)N[C@H](Cc1cccnc1)C(=O)N[C@@H](CO)C(=O)N[C@@H](Cc1ccc(O)cc1)C(=O)N[C@H](CCCCNC(N)=O)C(=O)N[C@@H](CC(C)C)C(=O)N[C@@H](CCCCNC(C)C)C(=O)N1CCC[C@H]1C(=O)N[C@H](C)C(N)=O [Tv, Ac-D-Nal(2)-D-Phe(4Cl)-D-Pal(3)-Ser-Tyr-D-Hcit-Leu-Lys(iPr)-Pro-D-Ala-NH2] (Ac-[d2Nal][dPhe(4-Cl)][d3Pal]SY[d(hCit)]L[Lys(iPr)]P[dA]-NH2)
